Test results taken from ChEMBL document CHEMBL4308841, “Synthesis, in vitro antiproliferative activity, and kinase inhibitory effects of pyrazole-containing diarylureas and diarylamides” (Eur J Med Chem, 2018).

Key:
[1] = tested on: TK-10; experiment: Growth inhibition of human TK10 cells assessed as cell growth at 10 uM incubated for 48 hrs by sulforhodamine B assay relative to control; assay type: functional; conditions: TK-10, 48 h, read-out: Activity
[2] = tested on: A498; experiment: Growth inhibition of human A498 cells assessed as cell growth at 0.01 uM incubated for 48 hrs by sulforhodamine B assay relative to control; assay type: functional; conditions: A498, 48 h, read-out: Activity
[3] = tested on: K562; experiment: Growth inhibition of human K562 cells assessed as cell growth at 0.1 uM incubated for 48 hrs by sulforhodamine B assay relative to control; assay type: functional; conditions: K562, 48 h, read-out: Activity
[4] = tested on: RPMI-8226; experiment: Growth inhibition of human RPMI8226 cells assessed as cell growth at 100 uM incubated for 48 hrs by sulforhodamine B assay relative to control; assay type: functional; conditions: RPMI-8226, 48 h, read-out: Activity
[5] = tested on: OVCAR-3; experiment: Growth inhibition of human OVCAR3 cells assessed as cell growth at 0.1 uM incubated for 48 hrs by sulforhodamine B assay relative to control; assay type: functional; conditions: OVCAR-3, 48 h, read-out: Activity
[6] = tested on: SK-MEL-5; experiment: Growth inhibition of human SK-MEL-5 cells assessed as cell growth at 0.01 uM incubated for 48 hrs by sulforhodamine B assay relative to control; assay type: functional; conditions: SK-MEL-5, 48 h, read-out: Activity
[7] = tested on: A549; experiment: Growth inhibition of human A549/ATCC cells incubated for 48 hrs by sulforhodamine B assay; assay type: functional, cell-based; conditions: A549, 48 h
[8] = tested on: MDA-MB-435; experiment: Growth inhibition of human MDA-MB-435 cells assessed as cell growth at 0.01 uM incubated for 48 hrs by sulforhodamine B assay relative to control; assay type: functional; conditions: MDA-MB-435, 48 h, read-out: Activity
[9] = tested on: MOLT-4; experiment: Growth inhibition of human MOLT4 cells incubated for 48 hrs by sulforhodamine B assay; assay type: functional, cell-based; conditions: MOLT-4, 48 h
[10] = tested on: SK-OV-3; experiment: Growth inhibition of human SKOV3 cells assessed as cell growth at 0.01 uM incubated for 48 hrs by sulforhodamine B assay relative to control; assay type: functional; conditions: SK-OV-3, 48 h, read-out: Activity
[11] = tested on: K562; experiment: Growth inhibition of human K562 cells assessed as cell growth at 100 uM incubated for 48 hrs by sulforhodamine B assay relative to control; assay type: functional; conditions: K562, 48 h, read-out: Activity
[12] = tested on: UACC-257; experiment: Growth inhibition of human UACC257 cells incubated for 48 hrs by sulforhodamine B assay; assay type: functional, cell-based; conditions: UACC-257, 48 h
[13] = tested on: SF-268; experiment: Growth inhibition of human SF268 cells assessed as cell growth at 100 uM incubated for 48 hrs by sulforhodamine B assay relative to control; assay type: functional; conditions: SF-268, 48 h, read-out: Activity
[14] = tested on: IGROV-1; experiment: Growth inhibition of human IGROV1 cells assessed as cell growth at 0.1 uM incubated for 48 hrs by sulforhodamine B assay relative to control; assay type: functional; conditions: IGROV-1, 48 h, read-out: Activity
[15] = tested on: OVCAR-8; experiment: Growth inhibition of human OVCAR8 cells assessed as cell growth at 1 uM incubated for 48 hrs by sulforhodamine B assay relative to control; assay type: functional; conditions: OVCAR-8, 48 h, read-out: Activity
[16] = tested on: NCI-H226; experiment: Growth inhibition of human NCI-H226 cells assessed as cell growth at 1 uM incubated for 48 hrs by sulforhodamine B assay relative to control; assay type: functional; conditions: NCI-H226, 48 h, read-out: Activity
[17] = tested on: SK-MEL-28; experiment: Growth inhibition of human SK-MEL-28 cells assessed as cell growth at 0.1 uM incubated for 48 hrs by sulforhodamine B assay relative to control; assay type: functional; conditions: SK-MEL-28, 48 h, read-out: Activity
[18] = tested on: MDA-MB-231; experiment: Growth inhibition of human MDA-MB-231 cells assessed as cell growth at 1 uM incubated for 48 hrs by sulforhodamine B assay relative to control; assay type: functional; conditions: MDA-MB-231, 48 h, read-out: Activity
[19] = tested on: SK-OV-3; experiment: Growth inhibition of human SKOV3 cells assessed as cell growth at 1 uM incubated for 48 hrs by sulforhodamine B assay relative to control; assay type: functional; conditions: SK-OV-3, 48 h, read-out: Activity
[20] = tested on: SF-295; experiment: Growth inhibition of human SF295 cells assessed as cell growth at 100 uM incubated for 48 hrs by sulforhodamine B assay relative to control; assay type: functional; conditions: SF-295, 48 h, read-out: Activity
[21] = tested on: SNB-75; experiment: Growth inhibition of human SNB75 cells incubated for 48 hrs by sulforhodamine B assay; assay type: functional, cell-based; conditions: SNB-75, 48 h
[22] = tested on: SNB-75; experiment: Growth inhibition of human SNB75 cells assessed as cell growth at 0.01 uM incubated for 48 hrs by sulforhodamine B assay relative to control; assay type: functional; conditions: SNB-75, 48 h, read-out: Activity
[23] = tested on: SK-OV-3; experiment: Growth inhibition of human SKOV3 cells incubated for 48 hrs by sulforhodamine B assay; assay type: functional, cell-based; conditions: SK-OV-3, 48 h
[24] = tested on: DU-145; experiment: Growth inhibition of human DU145 cells assessed as cell growth at 0.01 uM incubated for 48 hrs by sulforhodamine B assay relative to control; assay type: functional; conditions: DU-145, 48 h, read-out: Activity
[25] = tested on: DU-145; experiment: Growth inhibition of human DU145 cells incubated for 48 hrs by sulforhodamine B assay; assay type: functional, cell-based; conditions: DU-145, 48 h
[26] = tested on: HCT-116; experiment: Growth inhibition of human HCT116 cells assessed as cell growth at 0.01 uM incubated for 48 hrs by sulforhodamine B assay relative to control; assay type: functional; conditions: HCT-116, 48 h, read-out: Activity
[27] = tested on: A549; experiment: Growth inhibition of human A549/ATCC cells assessed as cell growth at 0.1 uM incubated for 48 hrs by sulforhodamine B assay relative to control; assay type: functional; conditions: A549, 48 h, read-out: Activity
[28] = tested on: COLO 205; experiment: Growth inhibition of human COLO205 cells assessed as cell growth at 100 uM incubated for 48 hrs by sulforhodamine B assay relative to control; assay type: functional; conditions: COLO 205, 48 h, read-out: Activity
[29] = tested on: SK-MEL-5; experiment: Growth inhibition of human SK-MEL-5 cells assessed as cell growth at 1 uM incubated for 48 hrs by sulforhodamine B assay relative to control; assay type: functional; conditions: SK-MEL-5, 48 h, read-out: Activity
[30] = read-out: LC50 (the source's name)
[31] = read-out: pLC50 (the source's name) (converted)

COc1cc(Cl)cc(-c2nn(-c3cccc(NC(=O)c4ccc(Cl)c(Cl)c4)c3)cc2-c2ccncc2)c1 gave a growth at 10 µM [1] of 104%.

With O=C(Nc1cccc(-n2cc(-c3ccncc3)c(-c3cc(O)cc(Cl)c3)n2)c1)Nc1ccc(Cl)c(Cl)c1 the growth at 0.01 µM [2] was 57%, the growth at 0.1 µM [3] was 100% and the growth at 100 µM [4] was -27%. It also gave a growth at 0.1 µM [5] of 101%, a growth at 0.01 µM [6] of 95% and an IC50 [7] of 1.96 µM. For the same compound, the GI50 ([7]; read-out: GI50) was 1.96 µM, the CC50 [7, 30] was greater than 100 µM and the TGI ([7]; read-out: TGI) was 75.4 µM. The GI50 ([7]; read-out: pGI50 (converted)) was 1.95 µM, the CC50 [7, 31] was greater than 100 µM and the TGI ([7]; read-out: pTGI (converted)) was 7.59 µM. For the same compound, the growth at 0.01 µM [8] was 96%, the GI50 ([9]; read-out: GI50) was 1.43 µM and the CC50 [9, 30] was greater than 100 µM. The TGI ([9]; read-out: TGI) was 51.8 µM, the GI50 ([9]; read-out: pGI50 (converted)) was 1.41 µM and the CC50 [9, 31] was greater than 100 µM. For the same compound, the TGI ([9]; read-out: pTGI (converted)) was 5.13 µM, the growth at 0.01 µM [10] was 108% and the growth at 100 µM [11] was 5%. The GI50 ([12]; read-out: GI50) was 1.96 µM, the CC50 [12, 30] was 9.5 µM and the TGI ([12]; read-out: TGI) was 43 µM. It also gave a GI50 ([12]; read-out: pGI50 (converted)) of 1.95 µM, a CC50 [12, 31] of 9.55 µM and a TGI ([12]; read-out: pTGI (converted)) of 4.27 µM. It also gave a growth at 100 µM [13] of -11%, a growth at 0.1 µM [14] of 101% and a growth at 1 µM [15] of 56%. The growth at 1 µM [16] was 96%, the growth at 0.1 µM [17] was 97% and the growth at 1 µM [18] was 50%. It also gave a growth at 1 µM [19] of 110%, a growth at 100 µM [20] of -58% and a GI50 ([21]; read-out: GI50) of 1.38 µM. It also gave a CC50 [21, 30] greater than 100 µM, a TGI ([21]; read-out: TGI) of 48.2 µM and a GI50 ([21]; read-out: pGI50 (converted)) of 1.38 µM. For the same compound, the CC50 [21, 31] was greater than 100 µM, the TGI ([21]; read-out: pTGI (converted)) was 4.79 µM and the growth at 0.01 µM [22] was 94%. For the same compound, the GI50 ([23]; read-out: GI50) was 3.42 µM, the CC50 [23, 30] was greater than 100 µM and the TGI ([23]; read-out: TGI) was 94.3 µM. The GI50 ([23]; read-out: pGI50 (converted)) was 3.39 µM, the CC50 [23, 31] was greater than 100 µM and the TGI ([23]; read-out: pTGI (converted)) was 9.33 µM. It also gave a growth at 0.01 µM [24] of 108%, a GI50 ([25]; read-out: GI50) of 2.5 µM and a CC50 [25, 30] greater than 100 µM. The TGI ([25]; read-out: TGI) was 10.1 µM, the GI50 ([25]; read-out: pGI50 (converted)) was 2.82 µM and the CC50 [25, 31] was greater than 100 µM. The TGI ([25]; read-out: pTGI (converted)) was 10.2 µM, the growth at 0.01 µM [26] was 101% and the growth at 0.1 µM [27] was 99%. It also gave a growth at 100 µM [28] of -88% and a growth at 1 µM [29] of 86%.
